Assay results taken from patent publication US9521845B2, “Beta-lactones as antibacterial agents” (LUDWIG-MAXIMILIANS-UNIVERSITÄT-MÜNCHEN, priority 2008, dated 2016).
Entries after “also recorded” stand apart in the source; their conditions may differ.

What was measured:
[1] = tested on: LLO haemolytic activity of L. monocytogenes EGDe; assay: LLO haemolytic activity testing of culture supernatants; assay type: cell-based, Listeria monocytogenes EGDe; settings: Listeria monocytogenes, Erythrocyte; cultures grown 16 h with lactone, sheep red blood cells; read-out: EC50 of reduction of LLO haemolytic activity
Protocol: Overnight cultures of L. monocytogenes EGDe were harvested by centrifugation and resuspended in an equal volume of fresh BHB medium. In 1.5 mL Eppendorf tubes, 400 μL of BHB medium were inoculated with 4 μL of the resuspended Listeria culture and 4 μL of a corresponding beta-lactone stock in DMSO. The final concentrations were 800 μM, 400 μM, 200 μM, 100 μM and DMSO as control. The amount of DMSO in all tests was 1% of the medium. After mixing, the test tubes were incubated under continuous shaking at 200 rpm at 37° C. for 16 h. Then, cells were centrifuged and the supernatants filtered sterile by passing them through a 0.2 μm pore size filter. Haemolytic activity of LLO in the culture supernatants was quantitatively investigated according to a method described in J. Food Safety 1998, 18: 197-203 (incorporated herein by reference) with some modifications. In Nunclon™ 96-well plates with round shaped wells 100 μL of serial dilutions of the supernatants in PBS were added per well and incubated with 100 μL of 3% SRBC (sheep red blood cells) resuspended in PBS for 15 min at 37° C. under gentle shaking. The 96-well plates were centrifuged at 600 rpm for 5 min and the minimum dilution at which intact blood cells began to form a pellet was recorded. Controls with no lactone were set 100%. Buffer only controls and pure BHB medium yielded no haemolysis.

HeLa cells = assay: Cytotoxicity, WST-1 cell proliferation test; assay type: cell-based; settings: up to a concentration of 1 mM (300 mg/L), 24 h
Protocol: Cytotoxicity was determined in HeLa cells using the WST-1 cell proliferation test. Trypsinated cells were seeded at 100 μL aliquots with antibiotic free medium in Nunclon™ flat-bottom 96-well plates with 1·10^4 cells per well. After incubation of HeLa cells for 24 h, the medium was replaced by antibiotic free test medium containing 1 mM, 100 μM and 10 μM beta-lactone U1, DMSO as non-toxic control and 1% Triton X-100 as 100% lethal control. The DMSO content in all tests was kept at 1%. HeLa cells with test medium were incubated for 24 h, then 10 μL WST-1 reagent were added and after 30 min incubation absorption at 450 nm was read with 630 nm reference wavelength using a TECAN GENios Pro microplate reader.

[2] = tested on: Listeria monocytogenes EGDe in the mouse macrophage-like cell line J774; assay: Infection of J774 cells and intracellular growth assay; assay type: cell-based; settings: 1 mM, 3 h and 5 h post infection, vs DMSO
Protocol: In a Nunclon™ 96-well plate with flat-bottom 1·10^5 J774 cells per well were seeded in 100 μL 90% DMEM medium with 10% FBS without antibiotics. After 24 h incubation the resulting monolayer was washed once with 100 μL PBS and 100 μL of L. monocytogenes EGDe suspension in 90% DMEM medium with 10% FBS without antibiotics was added either with 1 mM beta-lactone U1 or DMSO. L. monocytogenes was grown in an over night culture with beta-lactone/DMSO and resuspended to approximately 10^6 cells/mL resulting in a multiplicity of infection (MOI) of 0.5. Macrophages were infected for 15 min at 37° C. after 15 min bacterial adherence on ice, as described in Molecular Microbiol. 2000, 35(6): 1286-1294 (incorporated herein by reference). Thereafter, the infected monolayer were washed two times with 100 μL PBS each and fresh 90% DMEM medium with 10% FBS containing 10 μg/mL gentamicin and 1 mM beta-lactone U1 or DMSO was added. After 0, 3 and 5 h post infection, the monolayers were washed again with two times 100 μL PBS and eukaryotic cells lysed by the addition of two times 250 μL of 0.05% solution of Triton X-100 in sterile deionised water. Intracellular bacteria were quantified by colony counting of serial dilutions plated on Listeria-agar (Ottaviani & Agosti Agar, Heipha Diagnostika, Eppelheim, Germany).

[3] = biological target: T1, S-formylglutathione hydrolase (SFGH) (Escherichia coli, UniProt P51025); assay: Substrate inhibition assay (p-nitrophenylacetate), IC50 determination; assay type: biochemical; settings: beta-lactone G2; substrate 2.4 mM, enzyme 30 nM; estimated
T1 construct: made in house; host or cells: E. coli BL21
T1 sequence (P51025 whole entry): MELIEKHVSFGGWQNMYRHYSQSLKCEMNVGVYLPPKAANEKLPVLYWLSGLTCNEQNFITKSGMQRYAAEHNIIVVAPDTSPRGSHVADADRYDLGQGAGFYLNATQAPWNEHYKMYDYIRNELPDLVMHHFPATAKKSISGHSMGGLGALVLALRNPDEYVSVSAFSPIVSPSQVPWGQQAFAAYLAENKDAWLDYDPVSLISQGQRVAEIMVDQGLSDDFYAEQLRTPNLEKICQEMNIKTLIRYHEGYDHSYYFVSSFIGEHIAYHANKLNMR
Protocol: SFGH mediated […] of the p-nitrophenylacetate leads to the release of p-nitrophenol which can be monitored at 400 nm. Various concentrations of beta-lactone G2 were added to a solution containing the substrate (2.4 mM) and enzyme (30 nM). Reactions were started by addition of the enzyme and subsequently monitored for 6 min. The mean average slopes of absorption (out of three independent experiments) versus beta-lactone concentration were plotted and the concentration of 50% inhibition (IC50) was estimated.

lipase (Lip) = assay: ABPP probe dose down in proteome, lipase labeling; assay type: binding; settings: L. welshimeri proteome, concentration range 10 μM to 5 nM
Protocol: (§1) To estimate the strength of probe interactions with proteins in the proteome, we compared the reactivity profiles of selected beta-lactones across a broad concentration range from 10 μM to 5 nM.
(§2) Proteome samples were adjusted to a final concentration of 1 mg protein/mL by dilution in PBS prior to probe labeling. Experiments for visualization by 1D SDS-PAGE were carried out in 43 μL total volume and those for affinity enrichment in 1892 μL total volume, such that once CC reagents were added, the total reaction volume was 50 μL and 2 mL, respectively. Reactions were initiated by addition of the probe and allowed to incubate for 60 min at room temperature. For heat controls the proteome was denatured with 1 μL of 43% SDS at 95° C. for 6 min and cooled to room temperature before the probe was applied. Following incubation, reporter tagged-azide reagents (13 μM rhodamine-azide for analytical or 20 μM rhodamine-biotin-azide for preparative scale) were added followed by 1 mM TCEP and 100 μM ligand. Samples were gently vortexed and the cycloaddition initiated by the addition of 1 mM CuSO4. The reactions were incubated at room temperature for 1 h (Speers, J. Amer. Chem. Soc. 125 (2003), 4686).

[4] = tested on: lipase/acylhydrolase (LipAc); assay: ABPP probe dose down in proteome, lipase/acylhydrolase labeling; assay type: binding; settings: L. welshimeri proteome
Protocol: as §1, §2

[5] = biological target: T2, Aldehyde dehydrogenase B (ADB) (Escherichia coli, UniProt P37685); assay: ABPP labeling of E. coli cytosol; assay type: binding; settings: 100 nM probe concentration, no other off targets
T2 construct: endogenous in cells; host or cells: Escherichia coli K12 lysate, cytosol fraction
T2 sequence (P37685 whole entry): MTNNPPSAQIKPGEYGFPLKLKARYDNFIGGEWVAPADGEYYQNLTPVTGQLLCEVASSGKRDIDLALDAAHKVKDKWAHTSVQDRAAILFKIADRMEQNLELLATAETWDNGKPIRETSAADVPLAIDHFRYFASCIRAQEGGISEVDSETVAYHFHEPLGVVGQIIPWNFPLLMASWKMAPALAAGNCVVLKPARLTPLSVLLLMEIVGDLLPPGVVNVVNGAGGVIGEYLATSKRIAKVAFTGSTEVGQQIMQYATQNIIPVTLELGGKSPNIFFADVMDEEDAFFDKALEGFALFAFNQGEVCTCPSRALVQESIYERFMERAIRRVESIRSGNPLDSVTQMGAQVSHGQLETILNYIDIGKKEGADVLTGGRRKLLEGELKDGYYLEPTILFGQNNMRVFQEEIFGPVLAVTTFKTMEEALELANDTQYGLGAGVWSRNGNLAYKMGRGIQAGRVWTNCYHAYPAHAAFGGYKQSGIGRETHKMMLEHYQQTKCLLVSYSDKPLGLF
Protocol: as §1, §2

[6] = tested on: β-Ketoacyl acyl carrier protein synthase II (KAS II); assay: ABPP labeling of bacterial proteomes, KAS II; assay type: binding, L. welshimeri, B. subtilis; settings: 50 μM probe, FIGS. 9A and 9B
Description: The library of beta-lactones to be tested comprised compounds with aliphatic or aromatic substitutions varying in length and branching. To evaluate the target selectivity, the beta-lactones were screened against several gram-positive and gram-negative bacterial proteomes including Pseudomonas putida, Listeria welshimeri, Bacillus licheniformis, Bacillus subtilis and Escherichia coli, which are phylogenetically related to pathogenic strains. In addition, mouse liver cytosol was included as an eukaryotic reference proteome. Initial labeling experiments were carried out by adding individual probes at 50 μM concentration to the proteome which is sufficient to achieve full saturation of most targets. […] As an example, labeling of L. welshimeri cytosolic and membrane proteomes as well as B. subtilis cytosolic proteome with a subset of the most complementary probes is shown in FIGS. 9A and 9B. […] Most of the targeted proteins were of low abundance as shown by the direct comparison of the relative intensities observed with Coomassie staining vs. fluorescence scanning (FIG. 11).
Proteome samples were adjusted to a final concentration of 1 mg protein/mL by dilution in PBS prior to probe labeling. […]

Row | Compound | EC50 [1] | cytotoxicity to HeLa cells (HeLa cells) | lower growth in the eukaryotic cells [2] | IC50 [3] | probe concentration down to which lipase is labeled (lipase (Lip)) | interaction with lipase/acylhydrolase (LipAc) [4] | ADB labeling preference [5] | KAS II labeling [6]
1 | C=CCCCCCCCC1C(=O)OC1CCc1ccccc1 (centres unmarked) [U1] | < 100 µM | non-cytotoxic; also recorded: Neither microscopic alterations of cell morphology nor significant inhibition of cell proliferation | approximately 76% | – | – | – | – | –
2 | C#CCCCC1OC(=O)C1CCCC (stereo not drawn) [G2, trans-3-butyl-4-(4-pentyn-1-yl)oxetan-2-one] | – | – | – | 5 µM | 20 nM | does not exhibit strong interaction | strong preference | labeled
